Values after ≈ are worked out from the molar mass of the structure shown.
system: B. subtilis; test: Antibacterial activity of crude compounds made by small scale synthesis; format: cell-based; conditions: crude reaction mixtures dissolved in DMSO, assayed directly
Protocol: 6-Anilinouracils were synthesized using small scale synthetic methods. One milligram quantities of 3-(3-methoxypropyl)-6-chlorouracil were heated with 42 substituted anilines in micro-test tubes at 130° C. for 20 minutes. The reaction mixtures were dissolved in DMSO and assayed directly for antibacterial activity.

| SMILES | MIC B. subtilis |
| --- | --- |
| COCCCn1c(=O)cc(Nc2ccc(C)c(Cl)c2)[nH]c1=O [Compound 3-Cl-4-Me] | 3.13 µg/mL (≈ 9.67 µM) |
| CCCc1ccc(Nc2cc(=O)n(CCCOC)c(=O)[nH]2)cc1 [Compound 4-Pr] | >100 µg/mL |
| COCCCn1c(=O)cc(Nc2cccc(C(C)O)c2)[nH]c1=O (stereo not shown) [3-CH(OH)CH3] | >100 µg/mL |
| COCCCn1c(=O)cc(Nc2cccc(CO)c2)[nH]c1=O [Compound 3-CH2OH] | >100 µg/mL |
| COCCCn1c(=O)cc(Nc2cccc(Cl)c2)[nH]c1=O [Compound 3-Cl] | >100 µg/mL |
| COCCCn1c(=O)cc(Nc2ccc(C(C)C)cc2)[nH]c1=O [Compound 4-iPR] | >100 µg/mL |
| COCCCn1c(=O)cc(Nc2ccc(OC)c(Cl)c2)[nH]c1=O [Compound 3-Cl-4-OMe] | 50 µg/mL (≈ 147 µM) |
| CCc1ccc(Nc2cc(=O)n(CCCOC)c(=O)[nH]2)cc1 [Compound 4-Et] | 50 µg/mL (≈ 165 µM) |
| COCCCn1c(=O)cc(Nc2ccc(C)cc2)[nH]c1=O [Compound 4-Me] | 50 µg/mL (≈ 173 µM) |
| COCCCn1c(=O)cc(Nc2ccccc2)[nH]c1=O [—] | >100 µg/mL |
| COCCCn1c(=O)cc(Nc2cc(Cl)cc(Cl)c2)[nH]c1=O [3,5-diCl] | >100 µg/mL |
| COCCCn1c(=O)cc(Nc2ccc(Cl)cc2)[nH]c1=O [Compound 4-Cl] | 100 µg/mL (≈ 323 µM) |
| COCCCn1c(=O)cc(Nc2ccc(F)c(Cl)c2)[nH]c1=O [Compound 3-Cl-4-F] | 50 µg/mL (≈ 153 µM) |
| COCCCn1c(=O)cc(Nc2ccc(Cl)c(C(F)(F)F)c2)[nH]c1=O [Compound 3-CF3-4-Cl] | >100 µg/mL |
| COCCCn1c(=O)cc(Nc2cccc(Br)c2)[nH]c1=O [Compound 3-Br] | >100 µg/mL |
| COCCCn1c(=O)cc(Nc2cccc(C)c2)[nH]c1=O [Compound 3-Me] | 100 µg/mL (≈ 346 µM) |
| COCCCn1c(=O)cc(Nc2cccc(C#N)c2)[nH]c1=O [Compound 3-CN] | >100 µg/mL |

| SMILES | MIC B. subtilis |
| --- | --- |
| COCCCn1c(=O)cc(Nc2ccc(F)c(F)c2)[nH]c1=O [3,4-diF] | >100 µg/mL |
| COCCCn1c(=O)cc(Nc2ccc(Cl)c(Cl)c2)[nH]c1=O [3,4-diCl] | 6.25 µg/mL (≈ 18.2 µM) |
| COCCCn1c(=O)cc(Nc2ccc(C)c(I)c2)[nH]c1=O [Compound 3-1-4-Me] | 1.57 µg/mL (≈ 3.78 µM) |
| COCCCn1c(=O)cc(Nc2ccc(CC(C)C)cc2)[nH]c1=O [Compound 4-iBU] | >100 µg/mL |
| COCCCn1c(=O)cc(Nc2ccc(C)c(CO)c2)[nH]c1=O [Compound 3-CH2OH-4-Me] | >100 µg/mL |
| COCCCn1c(=O)cc(Nc2cccc(OC)c2)[nH]c1=O [Compound 3-OMe] | >100 µg/mL |
| COCCCn1c(=O)cc(Nc2cc(C)cc(C)c2)[nH]c1=O [3,5-diMe] | 50 µg/mL (≈ 165 µM) |
| COCCCn1c(=O)cc(Nc2ccc(Br)c(C(F)(F)F)c2)[nH]c1=O [Compound 3-CF3-4-Br] | >100 µg/mL |
| COCCCn1c(=O)cc(Nc2cc(F)c(F)c(F)c2)[nH]c1=O [3,4,5-triF] | >100 µg/mL |
| COCCCn1c(=O)cc(Nc2cccc([N+](=O)[O-])c2)[nH]c1=O [Compound 3-NO2] | >100 µg/mL |
| COCCCn1c(=O)cc(Nc2cccc(F)c2)[nH]c1=O [Compound 3-F] | >100 µg/mL |
| COCCCn1c(=O)cc(Nc2ccc(C#N)cc2)[nH]c1=O [Compound 4-CN] | >100 µg/mL |
| COCCCn1c(=O)cc(Nc2ccc(F)cc2)[nH]c1=O [Compound 4-F] | >100 µg/mL |
| COCCCn1c(=O)cc(Nc2ccc(OC)c(OC)c2)[nH]c1=O [3,4-diOMe] | >100 µg/mL |
| COCCCn1c(=O)cc(Nc2ccc(C)c(C)c2)[nH]c1=O [3,4-diMe] | 6.26 µg/mL (≈ 20.6 µM) |
| COCCCn1c(=O)cc(Nc2ccc(I)cc2)[nH]c1=O [Compound 4-I] | 100 µg/mL (≈ 249 µM) |
| COCCCn1c(=O)cc(Nc2cccc(I)c2)[nH]c1=O [Compound 3-I] | 25 µg/mL (≈ 62.3 µM) |

Source: patent US6448256B1, “Antibiotic prodrugs” (University of Massachusetts, priority 1999, dated 2002)
